Measured values: the NIST ThermoML archive (doi:10.1016/j.jct.2006.05.003)

How the values were obtained:
[1] = 101 kPa, Liquid
[2] = refractive index (Na D-line) (dimensionless); settings: 101.33 kPa, Liquid, Standard Abbe refractometry
[3] = xn = mol fraction of the nth substance listed; settings: 101 kPa, Liquid
[4] = refractive index (Na D-line) (dimensionless); xn = mol fraction of the nth substance listed; settings: 101 kPa, Liquid, Standard Abbe refractometry

C1COCCO1 [1,4-dioxane]
Settings | mass density, [1] [kg/m3] | refractive index, [2]
298.15 K | 1027.87 | 1.41995
313.15 K | 1010.69 | 1.41264

C1COCCO1 [1,4-dioxane] + CC(C)(C)Cl
x1 = 1
Settings | mass density, [3] [kg/m3] | refractive index, [4]
298.15 K | 1027.87 | 1.41995
313.15 K | 1010.69 | 1.41264

C1COCCO1 [1,4-dioxane] + CC(C)CCl
x1 = 1
Settings | mass density, [3] [kg/m3] | refractive index, [4]
298.15 K | 1027.87 | 1.41995
313.15 K | 1010.69 | 1.41264

C1COCCO1 [1,4-dioxane] + CCC(C)Cl
x1 = 1
Settings | mass density, [3] [kg/m3] | refractive index, [4]
298.15 K | 1027.87 | 1.41995
313.15 K | 1010.69 | 1.41264

C1COCCO1 [1,4-dioxane] + CCCCCl
x1 = 1
Settings | mass density, [3] [kg/m3] | refractive index, [4]
298.15 K | 1027.87 | 1.41995
313.15 K | 1010.69 | 1.41264

C1COCCO1 [1,4-dioxane] + CCCCl
x1 = 1
Settings | mass density, [3] [kg/m3] | refractive index, [4]
298.15 K | 1027.87 | 1.41995
313.15 K | 1010.69 | 1.41264

CC(C)CCl [1-chloro-2-methylpropane]
Settings | mass density, [1] [kg/m3] | refractive index, [2]
298.15 K | 871.13 | 1.39528
313.15 K | 853.51 | 1.38686

CC(C)CCl [1-chloro-2-methylpropane] + C1COCCO1
Settings | mass density, [3] [kg/m3] | refractive index, [4]
298.15 K, x2 = 0 | 871.13 | 1.39528
298.15 K, x2 = 0.045 | 876.79 | 1.39616
298.15 K, x2 = 0.1196 | 886.36 | 1.39763
298.15 K, x2 = 0.2433 | 902.87 | 1.40025
298.15 K, x2 = 0.3412 | 916.58 | 1.40243
298.15 K, x2 = 0.4407 | 931.19 | 1.40471
298.15 K, x2 = 0.5447 | 947.22 | 1.40725
298.15 K, x2 = 0.6463 | 963.67 | 1.40983
298.15 K, x2 = 0.737 | 979.04 | 1.4123
298.15 K, x2 = 0.8305 | 995.63 | 1.41492
298.15 K, x2 = 0.9157 | 1011.45 | 1.41742
298.15 K, x2 = 0.9515 | 1018.31 | 1.41849
313.15 K, x2 = 0 | 853.51 | 1.38686
313.15 K, x2 = 0.0474 | 859.42 | 1.38783
313.15 K, x2 = 0.1492 | 872.58 | 1.39001
313.15 K, x2 = 0.2654 | 888.36 | 1.39259
313.15 K, x2 = 0.3687 | 903.12 | 1.39504
313.15 K, x2 = 0.4565 | 916.21 | 1.39721
313.15 K, x2 = 0.5541 | 931.39 | 1.39973
313.15 K, x2 = 0.6426 | 945.76 | 1.40211
313.15 K, x2 = 0.7423 | 962.69 | 1.40489
313.15 K, x2 = 0.8326 | 978.76 | 1.40752
313.15 K, x2 = 0.9112 | 993.38 | 1.40987
313.15 K, x2 = 0.9606 | 1002.9 | 1.41139

CCCCCl [1-chlorobutane]
Settings | mass density, [1] [kg/m3] | refractive index, [2]
298.15 K | 880.69 | 1.3995
313.15 K | 863.82 | 1.39133

CCCCCl [1-chlorobutane] + C1COCCO1
Settings | mass density, [3] [kg/m3] | refractive index, [4]
298.15 K, x2 = 0 | 880.69 | 1.3995
298.15 K, x2 = 0.0418 | 885.54 | 1.40011
298.15 K, x2 = 0.1141 | 894.14 | 1.40119
298.15 K, x2 = 0.2426 | 910.06 | 1.40328
298.15 K, x2 = 0.3358 | 922.21 | 1.40491
298.15 K, x2 = 0.4518 | 938.11 | 1.40709
298.15 K, x2 = 0.5509 | 952.44 | 1.40908
298.15 K, x2 = 0.5914 | 958.52 | 1.40994
298.15 K, x2 = 0.738 | 981.64 | 1.41323
298.15 K, x2 = 0.8235 | 995.99 | 1.41529
298.15 K, x2 = 0.9104 | 1011.29 | 1.41752
298.15 K, x2 = 0.987 | 1025.41 | 1.4196
313.15 K, x2 = 0 | 863.82 | 1.39133
313.15 K, x2 = 0.0344 | 867.83 | 1.39188
313.15 K, x2 = 0.117 | 877.61 | 1.39321
313.15 K, x2 = 0.2279 | 891.26 | 1.39506
313.15 K, x2 = 0.3499 | 907.15 | 1.39732
313.15 K, x2 = 0.4442 | 920.15 | 1.39917
313.15 K, x2 = 0.55 | 935.51 | 1.40138
313.15 K, x2 = 0.645 | 950.02 | 1.40351
313.15 K, x2 = 0.7456 | 966.15 | 1.40591
313.15 K, x2 = 0.8238 | 979.22 | 1.40786
313.15 K, x2 = 0.9143 | 995.01 | 1.41024
313.15 K, x2 = 0.9636 | 1003.94 | 1.41159

CCCCl [1-chloropropane]
Settings | mass density, [1] [kg/m3] | refractive index, [2]
298.15 K | 884.26 | 1.3856
313.15 K | 865.14 | 1.37673

CCCCl [1-chloropropane] + C1COCCO1
Settings | mass density, [3] [kg/m3] | refractive index, [4]
298.15 K, x2 = 0 | 884.26 | 1.3856
298.15 K, x2 = 0.1027 | 898.64 | 1.38919
298.15 K, x2 = 0.2077 | 913.41 | 1.39281
298.15 K, x2 = 0.3029 | 926.89 | 1.39609
298.15 K, x2 = 0.4034 | 941.19 | 1.39957
298.15 K, x2 = 0.506 | 955.87 | 1.40308
298.15 K, x2 = 0.6062 | 970.28 | 1.40651
298.15 K, x2 = 0.706 | 984.73 | 1.4099
298.15 K, x2 = 0.8081 | 999.6 | 1.41336
298.15 K, x2 = 0.9059 | 1013.96 | 1.41673
298.15 K, x2 = 0.9486 | 1020.26 | 1.41818
313.15 K, x2 = 0 | 865.14 | 1.37673
313.15 K, x2 = 0.1009 | 879.74 | 1.38047
313.15 K, x2 = 0.2026 | 894.27 | 1.38432
313.15 K, x2 = 0.3067 | 909.2 | 1.38812
313.15 K, x2 = 0.4061 | 923.53 | 1.39169
313.15 K, x2 = 0.5056 | 937.97 | 1.39523
313.15 K, x2 = 0.6044 | 952.38 | 1.39872
313.15 K, x2 = 0.7114 | 968.04 | 1.40252
313.15 K, x2 = 0.8026 | 981.42 | 1.40576
313.15 K, x2 = 0.9011 | 995.98 | 1.40922
313.15 K, x2 = 0.951 | 1003.38 | 1.41097

CC(C)(C)Cl [2-chloro-2-methylpropane]
Settings | mass density, [1] [kg/m3] | refractive index, [2]
298.15 K | 836.45 | 1.38224
313.15 K | 818.31 | 1.37314

CC(C)(C)Cl [2-chloro-2-methylpropane] + C1COCCO1
Settings | mass density, [3] [kg/m3] | refractive index, [4]
298.15 K, x2 = 0 | 836.45 | 1.38224
298.15 K, x2 = 0.0458 | 844.01 | 1.38393
298.15 K, x2 = 0.1594 | 862.91 | 1.38814
298.15 K, x2 = 0.2576 | 879.78 | 1.39182
298.15 K, x2 = 0.3925 | 904.15 | 1.39689
298.15 K, x2 = 0.4632 | 917.47 | 1.39956
298.15 K, x2 = 0.5569 | 935.61 | 1.40312
298.15 K, x2 = 0.6611 | 956.29 | 1.40709
298.15 K, x2 = 0.7458 | 973.39 | 1.41033
298.15 K, x2 = 0.8395 | 992.69 | 1.4139
298.15 K, x2 = 0.9222 | 1010.32 | 1.41703
298.15 K, x2 = 0.9639 | 1019.57 | 1.41861
313.15 K, x2 = 0 | 818.31 | 1.37314
313.15 K, x2 = 0.0485 | 826.29 | 1.37502
313.15 K, x2 = 0.0903 | 833.3 | 1.37667
313.15 K, x2 = 0.2192 | 855.58 | 1.38175
313.15 K, x2 = 0.2827 | 866.86 | 1.38423
313.15 K, x2 = 0.3966 | 887.59 | 1.3888
313.15 K, x2 = 0.5029 | 907.54 | 1.39301
313.15 K, x2 = 0.6039 | 927.14 | 1.39702
313.15 K, x2 = 0.7025 | 946.96 | 1.40092
313.15 K, x2 = 0.8138 | 970.21 | 1.40529
313.15 K, x2 = 0.8959 | 987.89 | 1.4085
313.15 K, x2 = 0.9612 | 1002.17 | 1.41105

CCC(C)Cl (stereo not given) [2-chlorobutane]
Settings | mass density, [1] [kg/m3] | refractive index, [2]
298.15 K | 867.4 | 1.39404
313.15 K | 850.13 | 1.38573

CCC(C)Cl (stereo not given) [2-chlorobutane] + C1COCCO1
Settings | mass density, [3] [kg/m3] | refractive index, [4]
298.15 K, x2 = 0 | 867.4 | 1.39404
298.15 K, x2 = 0.0417 | 872.75 | 1.3949
298.15 K, x2 = 0.1061 | 881.2 | 1.3963
298.15 K, x2 = 0.2514 | 901.2 | 1.3996
298.15 K, x2 = 0.3493 | 915.42 | 1.40193
298.15 K, x2 = 0.4771 | 934.94 | 1.40512
298.15 K, x2 = 0.5563 | 947.61 | 1.40721
298.15 K, x2 = 0.6462 | 962.58 | 1.40961
298.15 K, x2 = 0.7343 | 977.89 | 1.41208
298.15 K, x2 = 0.8244 | 994.21 | 1.41466
298.15 K, x2 = 0.9112 | 1010.56 | 1.41725
298.15 K, x2 = 0.9891 | 1025.72 | 1.41962
313.15 K, x2 = 0 | 850.13 | 1.38573
313.15 K, x2 = 0.0475 | 856.2 | 1.38674
313.15 K, x2 = 0.1318 | 867.4 | 1.38865
313.15 K, x2 = 0.239 | 882.36 | 1.3912
313.15 K, x2 = 0.3413 | 897.3 | 1.39378
313.15 K, x2 = 0.4574 | 915.03 | 1.39683
313.15 K, x2 = 0.5546 | 930.53 | 1.39949
313.15 K, x2 = 0.6429 | 945.17 | 1.40195
313.15 K, x2 = 0.7326 | 960.65 | 1.40449
313.15 K, x2 = 0.8209 | 976.52 | 1.40709
313.15 K, x2 = 0.9121 | 993.58 | 1.40985
313.15 K, x2 = 0.9525 | 1001.37 | 1.41113
